Measurements reported in US9751888B2, “Heterocyclic compounds and uses thereof” (Infinity Pharmaceuticals, Inc., priority 2013, dated 2017).

How the values were obtained:
[1] = target: human Class I PI3 kinase α (Homo sapiens (Human), UniProt P42336); assay: PI3-Kinase Promega ADP-Glo Max assay, α isoform; format: biochemical; settings: 20 nM kinase, 3 mM ATP, 500 uM diC8-PtdInsP; read-out: Promega α PI3K IC50
Protocol: (§1) Promega ADP-Glo Max assay kit (Cat. No. V7002) was utilized to determine IC50 values for α, β, δ and γ isoforms of human Class I PI3 kinases (Millipore). […] Reactions were incubated at room temperature for 2 hours followed by addition of 25 uL of stop solution. After a 40-minute incubation at room temperature, 50 uL of Promega detection mix was added followed by incubation for 1 hour at room temperature. Plates were then read on Envision plate reader in luminescence mode. Data was converted to % inhibition using the following equation below: [formula] where S is the sample luminescence, Pos is a positive control without added PI3K, Neg is the negative control without added compound. Data was then plotted as % inhibition vs compound concentration.

[2] = target: human Class I PI3 kinase β (Homo sapiens (Human), UniProt P42338); assay: PI3-Kinase Promega ADP-Glo Max assay, β isoform; format: biochemical; settings: 40 nM kinase, 3 mM ATP, 500 uM diC8-PtdInsP; read-out: Promega β PI3K IC50
Protocol: Promega ADP-Glo Max assay kit (Cat. No. V7002) was utilized to determine IC50 values for α, β, δ and γ isoforms of human Class I PI3 kinases (Millipore). […] Reactions were incubated at room temperature for 2 hours followed by addition of 25 uL of stop solution. After a 40-minute incubation at room temperature, 50 uL of Promega detection mix was added followed by incubation for 1 hour at room temperature. Plates were then read on Envision plate reader in luminescence mode. Data was converted to % inhibition using the following equation below:

[3] = target: human Class I PI3 kinase δ (Homo sapiens (Human), UniProt O00329); assay: PI3-Kinase Promega ADP-Glo Max assay, δ isoform; format: biochemical; settings: 20 nM kinase, 3 mM ATP, 500 uM diC8-PtdInsP; read-out: Promega δ PI3K IC50
Protocol: as §1

[4] = target: human Class I PI3 kinase γ (Homo sapiens (Human), UniProt P48736); assay: PI3-Kinase Promega ADP-Glo Max assay, γ isoform; format: biochemical; settings: 40 nM kinase, 3 mM ATP, 500 uM diC8-PtdInsP; read-out: Promega γ PI3K IC50
Protocol: Promega ADP-Glo Max assay kit (Cat. No. V7002) was utilized to determine IC50 values for α, β, δ and γ isoforms of human Class I PI3 kinases (Millipore). Samples of kinase (20 nM α or δ, 40 nM β or γ isoform) were incubated with compound for 15 minutes at room temperature in reaction buffer (15 mM HEPES pH 7.4, 20 mM NaCl, 1 mM EGTA, 0.02% Tween 20, 10 mM MgCl2, 0.2 mg/mL bovine-γ-globulins) followed by addition of ATP/diC8-PtdInsP mixture to give final concentrations of 3 mM ATP and 500 uM diC8-PtdInsP. Reactions were incubated at room temperature for 2 hours followed by addition of 25 uL of stop solution. After a 40-minute incubation at room temperature, 50 uL of Promega detection mix was added followed by incubation for 1 hour at room temperature. Plates were then read on Envision plate reader in luminescence mode. Data was converted to % inhibition using the following equation below:
[formula] where S is the sample luminescence, Pos is a positive control without added PI3K, Neg is the negative control without added compound. Data was then plotted as % inhibition vs compound concentration.
Certain compounds provided herein were tested in PI3-Kinase Promega Assay using procedures as described above to determine IC50 values for α, β, δ and/or γ isoforms.

p110 δ (RAJI cells) = p110 δ (RAJI cells) (Homo sapiens (Human), UniProt O00329); assay: PI3K-δ selective cellular assay: phospho-AKT in anti-human IgM stimulated RAJI cells; format: cell-based; settings: serum-starved RAJI cells stimulated with anti-human IgM
Description: A compound's ability in selectively inhibiting PI3K-δ can be assessed using RAJI cells, i.e., B lymphocyte cells derived from lymphoma patients. Briefly, serum-starved RAJI cells are stimulated with anti-human IgM, thereby causing signaling through the B-cell receptors, as described in, for example, He et al., Leukemia Research (2009) 33: 798-802. B-cell receptor signaling is important for the activation, differentiation, and survival of B cells and certain B-cell derived cancers. Reduction of phospho-AKT is indicative of compounds that may inhibit B-cell proliferation and function in certain diseases. […] Certain compounds provided herein were tested in RAJI cell model using procedures as described above.

p110 γ (RAW264.7 cells) = p110 γ (RAW264.7 cells) (Mus musculus (Mouse), UniProt Q9JHG7); assay: PI3K-γ selective cellular assay: phospho-AKT in C5a stimulated RAW264.7 macrophages; format: cell-based; settings: serum-starved RAW264.7 cells stimulated with C5a
Protocol: Certain compounds provided herein were tested in RAW 264.7 cell model using procedures as described above.

Chain of human Class I PI3 kinase δ (O00329 whole entry, canonical isoform): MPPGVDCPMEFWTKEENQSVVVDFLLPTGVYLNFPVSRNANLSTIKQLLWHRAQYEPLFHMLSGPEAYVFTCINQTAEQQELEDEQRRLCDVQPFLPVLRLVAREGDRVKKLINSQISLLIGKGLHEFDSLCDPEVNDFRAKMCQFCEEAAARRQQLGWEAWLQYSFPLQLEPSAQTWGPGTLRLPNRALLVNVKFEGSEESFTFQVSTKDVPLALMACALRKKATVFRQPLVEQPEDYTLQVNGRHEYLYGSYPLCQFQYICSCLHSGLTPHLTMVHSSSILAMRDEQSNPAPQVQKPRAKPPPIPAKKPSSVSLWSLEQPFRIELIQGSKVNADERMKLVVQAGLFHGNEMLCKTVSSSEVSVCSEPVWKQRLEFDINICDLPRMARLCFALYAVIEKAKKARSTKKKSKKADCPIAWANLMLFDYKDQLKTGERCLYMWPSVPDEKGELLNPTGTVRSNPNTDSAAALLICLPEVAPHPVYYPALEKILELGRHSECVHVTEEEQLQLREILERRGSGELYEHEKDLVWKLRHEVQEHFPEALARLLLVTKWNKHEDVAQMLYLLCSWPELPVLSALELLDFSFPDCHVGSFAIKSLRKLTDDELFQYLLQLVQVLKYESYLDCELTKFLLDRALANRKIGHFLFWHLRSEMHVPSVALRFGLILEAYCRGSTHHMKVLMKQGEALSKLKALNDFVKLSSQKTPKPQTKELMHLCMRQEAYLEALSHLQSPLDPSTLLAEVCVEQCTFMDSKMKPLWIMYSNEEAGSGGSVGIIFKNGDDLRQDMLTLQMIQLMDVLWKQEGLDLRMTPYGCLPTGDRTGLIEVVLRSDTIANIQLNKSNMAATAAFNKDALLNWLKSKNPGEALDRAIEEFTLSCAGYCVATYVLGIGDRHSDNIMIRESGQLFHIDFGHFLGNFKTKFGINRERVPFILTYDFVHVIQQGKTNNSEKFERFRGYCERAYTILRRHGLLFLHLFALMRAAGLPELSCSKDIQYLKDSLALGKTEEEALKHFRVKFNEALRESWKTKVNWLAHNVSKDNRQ
Chain of human Class I PI3 kinase δ (P27986 whole entry partner, canonical isoform): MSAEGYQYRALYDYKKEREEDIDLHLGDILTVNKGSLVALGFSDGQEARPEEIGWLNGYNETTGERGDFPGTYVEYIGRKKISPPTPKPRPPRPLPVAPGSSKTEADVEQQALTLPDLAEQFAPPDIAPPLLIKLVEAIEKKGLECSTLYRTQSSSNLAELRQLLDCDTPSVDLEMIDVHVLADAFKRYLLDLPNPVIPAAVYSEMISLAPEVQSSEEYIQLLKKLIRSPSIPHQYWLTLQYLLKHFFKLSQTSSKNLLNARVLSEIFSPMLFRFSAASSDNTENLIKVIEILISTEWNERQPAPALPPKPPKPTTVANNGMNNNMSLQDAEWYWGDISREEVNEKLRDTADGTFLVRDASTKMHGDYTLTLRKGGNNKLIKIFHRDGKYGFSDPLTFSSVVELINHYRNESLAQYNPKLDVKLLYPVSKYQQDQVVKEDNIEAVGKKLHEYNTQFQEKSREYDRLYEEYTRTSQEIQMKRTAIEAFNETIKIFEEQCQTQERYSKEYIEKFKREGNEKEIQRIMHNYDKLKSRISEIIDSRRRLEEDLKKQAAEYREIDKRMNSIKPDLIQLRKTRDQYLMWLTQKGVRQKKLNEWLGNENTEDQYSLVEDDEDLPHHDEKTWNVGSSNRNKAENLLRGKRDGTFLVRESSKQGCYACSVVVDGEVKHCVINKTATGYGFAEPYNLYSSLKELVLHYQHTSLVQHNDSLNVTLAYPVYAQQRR
Chain of p110 δ (RAJI cells) (O00329 whole entry): as the sequence (O00329 whole entry, canonical isoform) above
Chain of p110 δ (RAJI cells) (P27986 whole entry partner): as the sequence (P27986 whole entry partner, canonical isoform) above
Chain of human Class I PI3 kinase β (P42338 whole entry, looked up, canonical isoform): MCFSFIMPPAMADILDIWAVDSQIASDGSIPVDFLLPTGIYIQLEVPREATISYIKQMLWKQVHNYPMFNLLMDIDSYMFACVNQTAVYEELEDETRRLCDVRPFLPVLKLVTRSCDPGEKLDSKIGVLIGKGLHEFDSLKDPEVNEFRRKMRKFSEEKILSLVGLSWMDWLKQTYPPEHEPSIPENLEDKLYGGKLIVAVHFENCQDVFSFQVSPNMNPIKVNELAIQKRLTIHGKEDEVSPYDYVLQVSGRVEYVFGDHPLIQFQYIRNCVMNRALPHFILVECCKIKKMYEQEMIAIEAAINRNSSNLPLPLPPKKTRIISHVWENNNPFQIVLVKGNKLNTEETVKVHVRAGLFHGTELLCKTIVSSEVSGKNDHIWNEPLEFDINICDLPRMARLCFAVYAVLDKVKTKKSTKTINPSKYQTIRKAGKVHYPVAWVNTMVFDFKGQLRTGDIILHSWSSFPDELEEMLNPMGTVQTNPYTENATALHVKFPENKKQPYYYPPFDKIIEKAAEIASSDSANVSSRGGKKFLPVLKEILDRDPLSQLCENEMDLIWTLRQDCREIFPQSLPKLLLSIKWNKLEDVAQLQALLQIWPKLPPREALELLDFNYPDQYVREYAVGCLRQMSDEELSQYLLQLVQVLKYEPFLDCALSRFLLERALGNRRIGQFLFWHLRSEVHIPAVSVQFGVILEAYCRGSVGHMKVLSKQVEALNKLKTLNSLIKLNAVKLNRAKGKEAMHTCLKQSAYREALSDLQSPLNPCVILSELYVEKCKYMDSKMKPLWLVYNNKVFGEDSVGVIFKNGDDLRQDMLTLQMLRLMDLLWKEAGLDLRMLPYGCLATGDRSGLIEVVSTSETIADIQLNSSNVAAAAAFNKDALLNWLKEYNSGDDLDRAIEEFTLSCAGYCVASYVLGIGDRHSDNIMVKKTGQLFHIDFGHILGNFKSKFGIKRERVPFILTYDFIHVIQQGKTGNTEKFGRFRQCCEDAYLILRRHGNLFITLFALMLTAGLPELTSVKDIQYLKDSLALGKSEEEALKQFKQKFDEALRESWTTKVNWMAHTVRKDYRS
Chain of human Class I PI3 kinase β (P27986 whole entry partner, looked up, canonical isoform): as the sequence (P27986 whole entry partner, canonical isoform) above
Chain of p110 γ (RAW264.7 cells) (Q9JHG7 whole entry): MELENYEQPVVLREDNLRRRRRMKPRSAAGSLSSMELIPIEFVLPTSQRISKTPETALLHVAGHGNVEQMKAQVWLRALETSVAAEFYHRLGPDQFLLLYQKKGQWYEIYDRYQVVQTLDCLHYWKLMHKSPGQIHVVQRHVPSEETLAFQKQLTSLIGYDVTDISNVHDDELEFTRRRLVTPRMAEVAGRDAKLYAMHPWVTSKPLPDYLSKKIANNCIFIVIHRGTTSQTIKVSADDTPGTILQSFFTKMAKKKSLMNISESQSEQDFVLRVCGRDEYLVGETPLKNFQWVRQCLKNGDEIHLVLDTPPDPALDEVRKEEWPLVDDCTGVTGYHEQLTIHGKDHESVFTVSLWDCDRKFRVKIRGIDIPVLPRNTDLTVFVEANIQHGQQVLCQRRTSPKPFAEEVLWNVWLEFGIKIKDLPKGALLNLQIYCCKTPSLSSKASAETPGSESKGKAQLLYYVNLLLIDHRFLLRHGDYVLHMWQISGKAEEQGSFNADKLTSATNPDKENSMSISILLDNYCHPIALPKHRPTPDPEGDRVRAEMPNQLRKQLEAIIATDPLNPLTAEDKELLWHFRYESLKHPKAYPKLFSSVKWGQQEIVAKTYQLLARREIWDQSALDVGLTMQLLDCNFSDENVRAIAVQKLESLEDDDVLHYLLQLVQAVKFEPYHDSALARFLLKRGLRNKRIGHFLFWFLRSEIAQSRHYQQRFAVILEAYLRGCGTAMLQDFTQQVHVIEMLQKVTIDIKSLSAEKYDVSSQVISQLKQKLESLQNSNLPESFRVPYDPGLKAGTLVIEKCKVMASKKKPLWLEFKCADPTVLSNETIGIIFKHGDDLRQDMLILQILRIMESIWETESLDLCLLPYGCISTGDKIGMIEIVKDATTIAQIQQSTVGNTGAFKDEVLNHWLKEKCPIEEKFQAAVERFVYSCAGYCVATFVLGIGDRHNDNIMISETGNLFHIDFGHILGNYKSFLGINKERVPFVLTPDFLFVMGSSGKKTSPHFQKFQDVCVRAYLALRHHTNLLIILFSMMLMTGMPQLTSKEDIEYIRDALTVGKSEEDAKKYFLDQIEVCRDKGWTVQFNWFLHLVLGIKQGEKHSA

| Compound | IC50 [1] [nM] | IC50 [2] [nM] | IC50 [3] [nM] | IC50 [4] [nM] | IC50 (p110 δ (RAJI cells)) [nM] | IC50 (p110 γ (RAW264.7 cells)) [nM] |
| --- | --- | --- | --- | --- | --- | --- |
| C[C@H](NC(=O)c1c(N)nn2cccnc12)c1cc2cccc(Cl)c2c(=O)n1CCCS(C)(=O)=O [Compound 57] | 1000 to 10000 | 100 to 500 | 1000 to 10000 | 100 to 500 | 100 to 500 | 100 to 500 |
| C[C@H](NC(=O)c1c(N)nn2cccnc12)c1cc2cccc(Cl)c2c(=O)n1C1CC(NS(C)(=O)=O)C1 (stereo partly drawn) [Compound 72] | 1000 to 10000 | 100 to 500 | 1000 to 10000 | 1000 to 10000 | 10 to 100 | 100 to 500 |
| C[C@H](NC(=O)c1c(N)nn2cccnc12)c1cc2cccc(Cl)c2c(=O)n1-c1ccccc1S(C)(=O)=O [Compound 83] | 1000 to 10000 | 1000 to 10000 | 1000 to 10000 | 1000 to 10000 | 1000 to 10000 | 500 to 1000 |
| Cc1noc(CCn2c([C@H](C)NC(=O)c3c(N)nn4cccnc34)cc3cccc(Cl)c3c2=O)n1 [Compound 18] | 1000 to 10000 | 1000 to 10000 | 1000 to 10000 | 1000 to 10000 | 10 to 100 | 100 to 500 |
| C#CCCn1c([C@H](C)NC(=O)c2c(N)nn3cccnc23)cc2cccc(Cl)c2c1=O [Compound 62] | 1000 to 10000 | 500 to 1000 | 1000 to 10000 | 500 to 1000 | 100 to 500 | 10 to 100 |
| C[C@H](NC(=O)c1c(N)nn2cccnc12)c1cc2cccc(Cl)c2c(=O)n1CCNS(C)(=O)=O [Compound 13] | 1000 to 10000 | 500 to 1000 | 1000 to 10000 | 10 to 100 | 10 to 100 | 100 to 500 |
| C[C@H](NC(=O)c1c(N)nn2cccnc12)c1cc2cccc(-c3cnn(CC(F)(F)F)c3)c2c(=O)n1-c1ccccc1 [Compound 50] | 1000 to 10000 | 1000 to 10000 | 1000 to 10000 | 100 to 500 | 100 to 500 | 10 to 100 |
| Cc1ccc(-n2c([C@H](C)NC(=O)c3c(N)nn4cccnc34)cc3cccc(Cl)c3c2=O)cc1 [Compound 75] | 1000 to 10000 | 1000 to 10000 | 1000 to 10000 | 100 to 500 | 10 to 100 | 10 to 100 |
| CNS(=O)(=O)CCn1c([C@H](C)NC(=O)c2c(N)nn3cccnc23)cc2cccc(Cl)c2c1=O [Compound 54] | 1000 to 10000 | 100 to 500 | 100 to 500 | 10 to 100 | 10 to 100 | 10 to 100 |
| C[C@H](NC(=O)c1c(N)nn2cccnc12)c1cc2cccc(Cl)c2c(=O)n1CCc1noc(C(C)(C)C)n1 [Compound 64] | 1000 to 10000 | 1000 to 10000 | 1000 to 10000 | 1000 to 10000 | 100 to 500 | 100 to 500 |
| C[C@H](NC(=O)c1c(N)nn2cccnc12)c1cc2cccc(CC(=O)C(C)(C)C)c2c(=O)n1-c1ccccc1 [Compound 94] | 1000 to 10000 | 1000 to 10000 | 1000 to 10000 | 1000 to 10000 | 500 to 1000 | 100 to 500 |
| C[C@H](NC(=O)c1c(N)nn2cccnc12)c1cc2cccc(Cl)c2c(=O)n1-c1ccc(S(C)(=O)=O)cc1 [Compound 80] | 1000 to 10000 | 1000 to 10000 | 1000 to 10000 | 1000 to 10000 | 500 to 1000 | 1000 to 10000 |
| C[C@H](NC(=O)c1c(N)nn2cccnc12)c1nc2ccccc2c(=O)n1-c1ccccc1 [Compound 95] | 1000 to 10000 | 1000 to 10000 | 500 to 1000 | 100 to 500 | 10 to 100 | 10 to 100 |
| C[C@H](NC(=O)c1c(N)nn2cccnc12)c1cc2cccc(Cl)c2c(=O)n1Cc1nnn[nH]1 [Compound 17] | 1000 to 10000 | 1000 to 10000 | 1000 to 10000 | 100 to 500 | 1000 to 10000 | 500 to 1000 |
| C[C@H](NC(=O)c1c(N)nn2cccnc12)c1cc2cccc(OCc3cnn(C)c3)c2c(=O)n1-c1ccccc1 [Compound 67] | 1000 to 10000 | 1000 to 10000 | 1000 to 10000 | 500 to 1000 | 1000 to 10000 | 10 to 100 |
| C[C@H](NC(=O)c1c(N)nn2cccnc12)c1nc2cccc(Cl)c2c(=O)n1-c1ccc(F)c(F)c1 [Compound 91] | 1000 to 10000 | 1000 to 10000 | 1000 to 10000 | 500 to 1000 | 100 to 500 | 10 to 100 |
| C[C@H](NC(=O)c1c(N)nn2cccnc12)c1nc2cccc(Cl)c2c(=O)n1-c1ccc(F)cc1 [Compound 45] | 1000 to 10000 | 1000 to 10000 | 1000 to 10000 | 10 to 100 | 10 to 100 | 1 to 10 |
| C[C@H](NC(=O)c1nccnc1N)c1nc2cccc(Cl)c2c(=O)n1-c1ccc(F)cc1 [Compound 46] | 1000 to 10000 | 1000 to 10000 | 1000 to 10000 | 100 to 500 | 1 to 10 | 10 to 100 |
| Cc1ccccc1-n1c([C@H](C)NC(=O)c2c(N)nn3cccnc23)cc2cccc(Cl)c2c1=O [Compound 73] | 1000 to 10000 | 100 to 500 | 500 to 1000 | 100 to 500 | 10 to 100 | 1 to 10 |
| C[C@H](NC(=O)c1c(N)nn2cccnc12)c1cc2cccc(Cl)c2c(=O)n1-c1ccccc1F [Compound 84] | 1000 to 10000 | 100 to 500 | 500 to 1000 | 100 to 500 | 10 to 100 | 10 to 100 |
| C[C@H](NC(=O)c1c(N)nn2cccnc12)c1cc2cccc(-c3cnn(CC#N)c3)c2c(=O)n1-c1ccccc1 [Compound 48] | 1000 to 10000 | 1000 to 10000 | 1000 to 10000 | 100 to 500 | 100 to 500 | 10 to 100 |
